pIC50: −log10 of the molar value. Values belong to the compound of their own block, whether it stands above or below them.
Test system: 252836-082-R-J2-PDC tumor spheroids, viability
Experiment: Anticancer human tumor 252836-082-R-J2-PDC patient-derived head and neck squamous cell carcinoma cell line growth inhibition [PI3K]
Settings: spheroids with HUVEC and MSC; for pIC50: curve of first compound; for viability, T/C: stronger effect = lower value
In short: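 Multi-cell spheroids combine tumor cells with HUVEC and human MSCs, treated with targeted agents alone or with inavolisib, alpelisib, duvelisib or copanlisib. Concentrations fall in half-log steps from at or near clinical Cmax, or from 10 microM where Cmax is unknown; viability read-out.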

[1] = second compound 0.00316 µM, first compound 0.0316 µM
[2] = second compound 0.00316 µM, first compound 0.1 µM
[3] = second compound 0.00316 µM, first compound 0.316 µM
[4] = second compound 0.00316 µM, first compound 1 µM
[5] = second compound 0.00316 µM, first compound 3.16 µM
[6] = second compound 0.00316 µM, first compound 10 µM
[7] = second compound 0.01 µM, first compound 0.0316 µM
[8] = second compound 0.01 µM, first compound 0.1 µM
[9] = second compound 0.01 µM, first compound 0.316 µM
[10] = second compound 0.01 µM, first compound 1 µM
[11] = second compound 0.01 µM, first compound 3.16 µM
[12] = second compound 0.01 µM, first compound 10 µM
[13] = second compound 0.0316 µM, first compound 0.0316 µM
[14] = second compound 0.0316 µM, first compound 0.1 µM
[15] = second compound 0.0316 µM, first compound 0.316 µM
[16] = second compound 0.0316 µM, first compound 1 µM
[17] = second compound 0.0316 µM, first compound 3.16 µM
[18] = second compound 0.0316 µM, first compound 10 µM
[19] = second compound 0.1 µM, first compound 0.0316 µM
[20] = second compound 0.1 µM, first compound 0.1 µM
[21] = second compound 0.1 µM, first compound 0.316 µM
[22] = second compound 0.1 µM, first compound 1 µM
[23] = second compound 0.1 µM, first compound 3.16 µM
[24] = second compound 0.1 µM, first compound 10 µM
[25] = second compound 0.316 µM, first compound 0.0316 µM
[26] = second compound 0.316 µM, first compound 0.1 µM
[27] = second compound 0.316 µM, first compound 0.316 µM
[28] = second compound 0.316 µM, first compound 1 µM
[29] = second compound 0.316 µM, first compound 3.16 µM
[30] = second compound 0.316 µM, first compound 10 µM
[31] = second compound 1 µM, first compound 0.0316 µM
[32] = second compound 1 µM, first compound 0.1 µM
[33] = second compound 1 µM, first compound 0.316 µM
[34] = second compound 1 µM, first compound 1 µM
[35] = second compound 1 µM, first compound 3.16 µM
[36] = second compound 1 µM, first compound 10 µM
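Further: spheroids exposed to agents for seven days before readout.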
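Wherever viability, T/C is given: percent of vehicle DMSO control viability so 100% = untreated growth.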

pIC50 (second compound 0.00316 µM): < 5.00
pIC50 (second compound 0.01 µM): < 5.00
pIC50 (second compound 0.0316 µM): 5.42
pIC50 (second compound 0.1 µM): > 7.50
pIC50 (second compound 0.316 µM): > 7.50
pIC50 (second compound 1 µM): > 7.50
SMILES: C#Cc1c(F)ccc2cc(O)cc(-c3ncc4c(N5CC6CCC(C5)N6)nc(OCC56CCCN5CC(F)C6)nc4c3F)c12 (stereo not drawn) + COc1c(OCCCN2CCOCC2)ccc2c3n(c(=NC(=O)c4cnc(N)nc4)nc12)CCN3
viability, T/C [1]: 75.2%
viability, T/C [2]: 79.9%
viability, T/C [3]: 105%
viability, T/C [4]: 76.8%
viability, T/C [5]: 72.5%
viability, T/C [6]: 67%
viability, T/C [7]: 76.5%
viability, T/C [8]: 76.8%
viability, T/C [9]: 72.2%
viability, T/C [10]: 70%
viability, T/C [11]: 60.2%
viability, T/C [12]: 53.2%
viability, T/C [13]: 53.5%
viability, T/C [14]: 62%
viability, T/C [15]: 53.7%
viability, T/C [16]: 57.2%
viability, T/C [17]: 52.7%
viability, T/C [18]: 34.9%
viability, T/C [19]: 40.4%
viability, T/C [20]: 37.9%
viability, T/C [21]: 36.5%
viability, T/C [22]: 32.8%
viability, T/C [23]: 37.6%
viability, T/C [24]: 18.4%
viability, T/C [25]: 16.9%
viability, T/C [26]: 15.7%
viability, T/C [27]: 13.2%
viability, T/C [28]: 15.3%
viability, T/C [29]: 12.9%
viability, T/C [30]: 4.25%
viability, T/C [31]: 4.39%
viability, T/C [32]: 4.93%
viability, T/C [33]: 4.55%
viability, T/C [34]: 4.71%
viability, T/C [35]: 2.91%
viability, T/C [36]: 0.25%

pIC50 (second compound 0.00316 µM): < 5.00
pIC50 (second compound 0.01 µM): < 5.00
pIC50 (second compound 0.0316 µM): < 5.00
pIC50 (second compound 0.1 µM): > 7.50
pIC50 (second compound 0.316 µM): > 7.50
pIC50 (second compound 1 µM): > 7.50
SMILES: C=CC(=O)N1CCN(c2nc(=O)n(-c3c(C)ccnc3C(C)C)c3nc(-c4c(O)cccc4F)c(F)cc23)C(C)C1 (stereo not drawn) + COc1c(OCCCN2CCOCC2)ccc2c3n(c(=NC(=O)c4cnc(N)nc4)nc12)CCN3
viability, T/C [1]: 92.7%
viability, T/C [2]: 94.5%
viability, T/C [3]: 96.1%
viability, T/C [4]: 99.7%
viability, T/C [5]: 118%
viability, T/C [6]: 94.9%
viability, T/C [7]: 74.4%
viability, T/C [8]: 73.8%
viability, T/C [9]: 89.2%
viability, T/C [10]: 88.7%
viability, T/C [11]: 98.2%
viability, T/C [12]: 82.2%
viability, T/C [13]: 63%
viability, T/C [14]: 56.9%
viability, T/C [15]: 55.3%
viability, T/C [16]: 75.8%
viability, T/C [17]: 77.4%
viability, T/C [18]: 73.3%
viability, T/C [19]: 36%
viability, T/C [20]: 34.6%
viability, T/C [21]: 34.9%
viability, T/C [22]: 45.1%
viability, T/C [23]: 45.1%
viability, T/C [24]: 42.8%
viability, T/C [25]: 19.2%
viability, T/C [26]: 17.3%
viability, T/C [27]: 22.8%
viability, T/C [28]: 17.3%
viability, T/C [29]: 20.8%
viability, T/C [30]: 15.9%
viability, T/C [31]: 5.1%
viability, T/C [32]: 5.86%
viability, T/C [33]: 5.59%
viability, T/C [34]: 5.93%
viability, T/C [35]: 7.35%
viability, T/C [36]: 3.61%

pIC50 (second compound 0.00316 µM): < 5.00
pIC50 (second compound 0.01 µM): < 5.00
pIC50 (second compound 0.0316 µM): < 5.00
pIC50 (second compound 0.1 µM): > 7.50
pIC50 (second compound 0.316 µM): > 7.50
pIC50 (second compound 1 µM): > 7.50
SMILES: CC(Cn1ccc(-c2ccc(C#N)c(Cl)c2)n1)NC(=O)c1cc(C(C)O)[nH]n1 (stereo not drawn) + COc1c(OCCCN2CCOCC2)ccc2c3n(c(=NC(=O)c4cnc(N)nc4)nc12)CCN3
viability, T/C [1]: 102%
viability, T/C [2]: 90.5%
viability, T/C [3]: 101%
viability, T/C [4]: 94.4%
viability, T/C [5]: 91.4%
viability, T/C [6]: 84.9%
viability, T/C [7]: 81.7%
viability, T/C [8]: 72.4%
viability, T/C [9]: 87.2%
viability, T/C [10]: 93.3%
viability, T/C [11]: 93%
viability, T/C [12]: 68.9%
viability, T/C [13]: 65.3%
viability, T/C [14]: 62.8%
viability, T/C [15]: 62.6%
viability, T/C [16]: 63.9%
viability, T/C [17]: 68.3%
viability, T/C [18]: 56.1%
viability, T/C [19]: 35.3%
viability, T/C [20]: 43.5%
viability, T/C [21]: 36.6%
viability, T/C [22]: 45.3%
viability, T/C [23]: 35.6%
viability, T/C [24]: 41.4%
viability, T/C [25]: 15.6%
viability, T/C [26]: 15.8%
viability, T/C [27]: 18.3%
viability, T/C [28]: 20.3%
viability, T/C [29]: 16.3%
viability, T/C [30]: 16.5%
viability, T/C [31]: 5.58%
viability, T/C [32]: 5.76%
viability, T/C [33]: 4.24%
viability, T/C [34]: 4.31%
viability, T/C [35]: 6.92%
viability, T/C [36]: 5.37%

pIC50 (second compound 0.00316 µM): > 7.50
pIC50 (second compound 0.01 µM): > 7.50
pIC50 (second compound 0.0316 µM): > 7.50
pIC50 (second compound 0.1 µM): > 7.50
pIC50 (second compound 0.316 µM): > 7.50
pIC50 (second compound 1 µM): > 7.50
SMILES: CC1(C)CCC(Nc2ncc(C(F)(F)F)c(-c3c[nH]c4c(P(C)(C)=O)c(C#N)ccc34)n2)CN1 (stereo not drawn) + COc1c(OCCCN2CCOCC2)ccc2c3n(c(=NC(=O)c4cnc(N)nc4)nc12)CCN3
viability, T/C [1]: 30%
viability, T/C [2]: 25.4%
viability, T/C [3]: 25.2%
viability, T/C [4]: 28.7%
viability, T/C [5]: 34.5%
viability, T/C [6]: 4.59%
viability, T/C [7]: 24.9%
viability, T/C [8]: 24.2%
viability, T/C [9]: 25.5%
viability, T/C [10]: 22.8%
viability, T/C [11]: 26.4%
viability, T/C [12]: 3.95%
viability, T/C [13]: 22%
viability, T/C [14]: 22.4%
viability, T/C [15]: 22.7%
viability, T/C [16]: 19.3%
viability, T/C [17]: 22.3%
viability, T/C [18]: 2.09%
viability, T/C [19]: 15.1%
viability, T/C [20]: 15.4%
viability, T/C [21]: 17.4%
viability, T/C [22]: 14.4%
viability, T/C [23]: 18.4%
viability, T/C [24]: 1.25%
viability, T/C [25]: 8.82%
viability, T/C [26]: 8.24%
viability, T/C [27]: 8.82%
viability, T/C [28]: 8.38%
viability, T/C [29]: 8.08%
viability, T/C [30]: 0.63%
viability, T/C [31]: 2.41%
viability, T/C [32]: 2.58%
viability, T/C [33]: 2.51%
viability, T/C [34]: 3.28%
viability, T/C [35]: 2.74%
viability, T/C [36]: 0.56%

Reference: PubChem BioAssay AID1963985 (Molecular Pharmacology Branch, DTP, NCI, 2024)
